According to the supplement of paper PMC4862054:

What follows are molecules tested on BT-549 (assay: normalised response (% of control), CellTox Green; higher = less cell death (100 = DMSO, 0 = benzethonium chloride kill control)). Conditions: incubation time: 72 h.
Outline: (§1)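 Normalised signals at single concentrations make up the values. They come from breast cancer cell lines seeded (20 µl suspension) into 384-well plates with compound at 5 concentrations in 10-fold steps over a compound-specific 10,000-fold range, incubated 72 h, and read for CellTox Green fluorescence then CellTiter-Glo luminescence. Each plate was normalised to 0.1 % DMSO (100) and a positive kill control (0).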

**Q.** For C[C@@H]1C=C2C(=O)O[C@@H]3CC[C@H](C1)[C@]23O [Galiellalactone] (50000 nM), which normalised response is on record?
**A.** 98.7%

**Q.** Which normalised response does the source give for C[C@@H]1C=C2C(=O)O[C@@H]3CC[C@H](C1)[C@]23O [Galiellalactone] (5000 nM) here?
**A.** 117%

**Q.** Which normalised response does the source give for COc1ccc(C2=N[C@@H](c3ccc(Cl)cc3)[C@@H](c3ccc(Cl)cc3)N2C(=O)N2CCNC(=O)C2)c(OC(C)C)c1 [Nutlin-3] (1000 nM) here?
**A.** 116%

**Q.** With COC1=CC(c2cc3ccccc3[nH]2)=N/C1=C\c1[nH]c(C)cc1C [Obatoclax] (10000 nM) as the molecule, how does the normalised response read?
**A.** 78.2%

**Q.** For CN1CCN(c2ccc3nc(-c4c(N)c5c(F)cccc5[nH]c4=O)[nH]c3c2)CC1 [Dovitinib] (10000 nM), which normalised response is on record?
**A.** 121%

**Q.** Which normalised response does the source give for COc1ccc(C2=N[C@@H](c3ccc(Cl)cc3)[C@@H](c3ccc(Cl)cc3)N2C(=O)N2CCNC(=O)C2)c(OC(C)C)c1 [Nutlin-3] (10000 nM) here?
**A.** 105%

**Q.** Which normalised response does the source give for COC1=C2C[C@@H](C)C[C@H](OC)[C@H](O)[C@@H](C)/C=C(\C)[C@H](OC(N)=O)[C@@H](OC)/C=C\C=C(/C)C(=O)NC(=CC1=O)C2=O [Geldanamycin] (1000 nM) here?
**A.** 112%

**Q.** For CC(C)(C)c1cc(NC(=O)Nc2ccc(-c3cn4c(n3)sc3cc(OCCN5CCOCC5)ccc34)cc2)no1 [Quizartinib] (1000 nM), which normalised response is on record?
**A.** 127%

**Q.** With COc1cccc2c1C(=O)c1c(O)c3c(c(O)c1C2=O)C[C@@](O)(C(C)=O)C[C@@H]3O[C@H]1C[C@H](N)[C@H](O)[C@H](C)O1 [Daunorubicin] (100 nM) as the molecule, how does the normalised response read?
**A.** 124%

**Q.** How did the normalised response turn out when O=c1[nH]cc(F)c(=O)[nH]1 [Fluorouracil] (10000 nM) was run?
**A.** 95.8%

**Q.** For O=C(c1ccc(OCCN2CCCCC2)cc1)c1c(-c2ccc(O)cc2)sc2cc(O)ccc12 [Raloxifene] (10000 nM), which normalised response is on record?
**A.** 101%

**Q.** How did the normalised response turn out when CC(C)(C)c1cc(NC(=O)Nc2ccc(-c3cn4c(n3)sc3cc(OCCN5CCOCC5)ccc34)cc2)no1 [Quizartinib] (100 nM) was run?
**A.** 132%

**Q.** CCS(=O)(=O)c1cccc(-c2cc(C(=O)NC3CCN(C)CC3)c(C)c3[nH]c4ncc(C)cc4c23)c1 [TAK-901] (100 nM) was tested. Which normalised response did it give?
**A.** 116%

**Q.** Which normalised response does the source give for CS(=O)(=O)OCCCCOS(C)(=O)=O [Busulfan] (100000 nM) here?
**A.** 110%

**Q.** How did the normalised response turn out when O=c1[nH]c(=O)n([C@H]2C[C@H](O)[C@@H](CO)O2)cc1F [Floxuridine] (10000 nM) was run?
**A.** 113%

**Q.** Cn1cnc2c(F)c(Nc3ccc(Br)cc3F)c(C(=O)NOCCO)cc21 [MEK-162] (1000 nM) was tested. Which normalised response did it give?
**A.** 97.4%

**Q.** With O=C(c1ccc(OCCN2CCCCC2)cc1)c1c(-c2ccc(O)cc2)sc2cc(O)ccc12 [Raloxifene] (1000 nM) as the molecule, how does the normalised response read?
**A.** 106%

**Q.** How did the normalised response turn out when O=c1[nH]c(=O)n([C@H]2C[C@H](O)[C@@H](CO)O2)cc1F [Floxuridine] (1000 nM) was run?
**A.** 111%

**Q.** For CCCC(CCC)C(=O)O [Valproic acid] (10000 nM), which normalised response is on record?
**A.** 117%

**Q.** How did the normalised response turn out when CS(=O)(=O)CCNCc1ccc(-c2ccc3ncnc(Nc4ccc(OCc5cccc(F)c5)c(Cl)c4)c3c2)o1 [Lapatinib] (1000 nM) was run?
**A.** 93.4%

**Q.** With COC1=CC(c2cc3ccccc3[nH]2)=N/C1=C\c1[nH]c(C)cc1C [Obatoclax] (1000 nM) as the molecule, how does the normalised response read?
**A.** 113%

These molecules were tested on MCF-10A in the same assay as above. Conditions: incubation time: 72 h.
Outline: as §1

**Q.** How did the normalised response turn out when COc1cccc2c1C(=O)c1c(O)c3c(c(O)c1C2=O)C[C@@](O)(C(C)=O)C[C@@H]3O[C@H]1C[C@H](N)[C@H](O)[C@H](C)O1 [Daunorubicin] (1000 nM) was run?
**A.** 106%

**Q.** How did the normalised response turn out when Cn1c(=O)c(F)c(Nc2ccc(I)cc2F)c2c(=O)n(C[C@@H](O)CO)cnc21 [TAK-733] (100 nM) was run?
**A.** 79.7%

**Q.** For C[C@@H]1C=C2C(=O)O[C@@H]3CC[C@H](C1)[C@]23O [Galiellalactone] (50000 nM), which normalised response is on record?
**A.** 102%

**Q.** How did the normalised response turn out when C[C@@H]1C=C2C(=O)O[C@@H]3CC[C@H](C1)[C@]23O [Galiellalactone] (5000 nM) was run?
**A.** 82.2%

**Q.** With COc1ccc(C2=N[C@@H](c3ccc(Cl)cc3)[C@@H](c3ccc(Cl)cc3)N2C(=O)N2CCNC(=O)C2)c(OC(C)C)c1 [Nutlin-3] (1000 nM) as the molecule, how does the normalised response read?
**A.** 84%

**Q.** Which normalised response does the source give for COC1=CC(c2cc3ccccc3[nH]2)=N/C1=C\c1[nH]c(C)cc1C [Obatoclax] (10000 nM) here?
**A.** 74.2%

**Q.** How did the normalised response turn out when CN1CCN(c2ccc3nc(-c4c(N)c5c(F)cccc5[nH]c4=O)[nH]c3c2)CC1 [Dovitinib] (10000 nM) was run?
**A.** 99.3%

**Q.** For COc1ccc(C2=N[C@@H](c3ccc(Cl)cc3)[C@@H](c3ccc(Cl)cc3)N2C(=O)N2CCNC(=O)C2)c(OC(C)C)c1 [Nutlin-3] (10000 nM), which normalised response is on record?
**A.** 101%

**Q.** COC1=C2C[C@@H](C)C[C@H](OC)[C@H](O)[C@@H](C)/C=C(\C)[C@H](OC(N)=O)[C@@H](OC)/C=C\C=C(/C)C(=O)NC(=CC1=O)C2=O [Geldanamycin] (1000 nM) was tested. Which normalised response did it give?
**A.** 96.8%

**Q.** CC(C)(C)c1cc(NC(=O)Nc2ccc(-c3cn4c(n3)sc3cc(OCCN5CCOCC5)ccc34)cc2)no1 [Quizartinib] (1000 nM) was tested. Which normalised response did it give?
**A.** 93.3%

**Q.** With COc1cccc2c1C(=O)c1c(O)c3c(c(O)c1C2=O)C[C@@](O)(C(C)=O)C[C@@H]3O[C@H]1C[C@H](N)[C@H](O)[C@H](C)O1 [Daunorubicin] (100 nM) as the molecule, how does the normalised response read?
**A.** 106%

**Q.** How did the normalised response turn out when O=c1[nH]cc(F)c(=O)[nH]1 [Fluorouracil] (10000 nM) was run?
**A.** 75.7%

**Q.** How did the normalised response turn out when O=C(c1ccc(OCCN2CCCCC2)cc1)c1c(-c2ccc(O)cc2)sc2cc(O)ccc12 [Raloxifene] (10000 nM) was run?
**A.** 82.2%

**Q.** CC(C)(C)c1cc(NC(=O)Nc2ccc(-c3cn4c(n3)sc3cc(OCCN5CCOCC5)ccc34)cc2)no1 [Quizartinib] (100 nM) was tested. Which normalised response did it give?
**A.** 84.8%

**Q.** CCS(=O)(=O)c1cccc(-c2cc(C(=O)NC3CCN(C)CC3)c(C)c3[nH]c4ncc(C)cc4c23)c1 [TAK-901] (100 nM) was tested. Which normalised response did it give?
**A.** 107%

**Q.** For CS(=O)(=O)OCCCCOS(C)(=O)=O [Busulfan] (100000 nM), which normalised response is on record?
**A.** 95.5%

**Q.** Which normalised response does the source give for O=c1[nH]c(=O)n([C@H]2C[C@H](O)[C@@H](CO)O2)cc1F [Floxuridine] (10000 nM) here?
**A.** 113%

**Q.** With Cn1cnc2c(F)c(Nc3ccc(Br)cc3F)c(C(=O)NOCCO)cc21 [MEK-162] (1000 nM) as the molecule, how does the normalised response read?
**A.** 106%

**Q.** O=C(c1ccc(OCCN2CCCCC2)cc1)c1c(-c2ccc(O)cc2)sc2cc(O)ccc12 [Raloxifene] (1000 nM) was tested. Which normalised response did it give?
**A.** 104%

**Q.** With O=c1[nH]c(=O)n([C@H]2C[C@H](O)[C@@H](CO)O2)cc1F [Floxuridine] (1000 nM) as the molecule, how does the normalised response read?
**A.** 116%

**Q.** CCCC(CCC)C(=O)O [Valproic acid] (10000 nM) was tested. Which normalised response did it give?
**A.** 107%

**Q.** With CS(=O)(=O)CCNCc1ccc(-c2ccc3ncnc(Nc4ccc(OCc5cccc(F)c5)c(Cl)c4)c3c2)o1 [Lapatinib] (1000 nM) as the molecule, how does the normalised response read?
**A.** 26.9%

**Q.** COC1=CC(c2cc3ccccc3[nH]2)=N/C1=C\c1[nH]c(C)cc1C [Obatoclax] (1000 nM) was tested. Which normalised response did it give?
**A.** 70.1%

These molecules were tested on HCC1599 in the same assay as above. Conditions: incubation time: 72 h.
Outline: as §1

**Q.** With COc1cccc2c1C(=O)c1c(O)c3c(c(O)c1C2=O)C[C@@](O)(C(C)=O)C[C@@H]3O[C@H]1C[C@H](N)[C@H](O)[C@H](C)O1 [Daunorubicin] (1000 nM) as the molecule, how does the normalised response read?
**A.** 138%

**Q.** Cn1c(=O)c(F)c(Nc2ccc(I)cc2F)c2c(=O)n(C[C@@H](O)CO)cnc21 [TAK-733] (100 nM) was tested. Which normalised response did it give?
**A.** 104%

**Q.** For C[C@@H]1C=C2C(=O)O[C@@H]3CC[C@H](C1)[C@]23O [Galiellalactone] (50000 nM), which normalised response is on record?
**A.** 114%

**Q.** Which normalised response does the source give for C[C@@H]1C=C2C(=O)O[C@@H]3CC[C@H](C1)[C@]23O [Galiellalactone] (5000 nM) here?
**A.** 105%
